Experimental data taken from patent US9708251B2, “Unsaturated fatty alcohol alkoxylates from natural oil metathesis” (Stepan Company, priority 2012, dated 2017).

Columns and labels:
[1] = Agrichemical solvent analysis: active solubility; type: physicochemical; settings: room temperature
Description: Solvency strength of potential agrichemical solvents is evaluated by identifying the solubility level of three standard pesticides in the solvent by weight percent: 2,4-D acid, imidacloprid, and tebuconazole. […] The active material is also accurately weighed before addition. Initial amounts of active material are approximately: 2,4-D: 0.3 g; imidacloprid: 0.02 g; tebuconazole: 0.3 g. Solvent and pesticide active are combined, allowed to mix for 1 h at room temperature, and then inspected for the presence of undissolved active material. Additional active material is added in appropriately small increments until it no longer dissolves completely. This mixture is then stirred for 24 h at room temperature, and if the active has completely dissolved, additional active ingredient is added and the mixture is stirred another 24 h at room temperature. The percent solubility is recorded, and performance is compared with that of a standard agricultural solvent.

[2] = Surfactant phase behavior study (cross-polarized microscopy); type: physicochemical; settings: room temperature
Description: Phase behavior is observed using an Olympus BH-2 cross-polarized microscope at 100-400× and room temperature (20° C. to 22° C.). The inventive monounsaturated alcohol ethoxylates are compared with their saturated analogs.
Samples are prepared by diluting the most concentrated product gradually with deionized water. When the surfactant concentration approaches a phase transition, the concentration is varied at 2-4% intervals to estimate the phase boundary. The actives level reported in Table 4 for each phase boundary is within ±5% of the true boundary.
Samples are loaded between a microscope slide and cover glass and are allowed to equilibrate before observation. Microscopic texture is analyzed and used to determine the phase. For some samples, an AR 2000 rheometer (TA Instruments) is used to measure viscosity at 25° C. to further verify phase behavior.

[3] = 0.4 wt. % active, 342 ppm hard water
Description: Surfactant solution (100 mL) is carefully transferred to a stainless-steel mixing cup, then mixed at high speed (27K rpm) using a Hamilton Beach mixer for 10 s. The contents are quickly poured into a 100-mL graduated cylinder to the 100-mL mark, and a stopwatch is immediately started. The amount of liquid settling in the cylinder is recorded every 15 s for 4 min. Less liquid drained indicates greater foam stability.

CCCCCCCCCC(=O)N(C)C [N,N-dimethylcapramide, reference compound]
solubility of 2,4-D Acid in the solvent [1]: 45.4 weight percent
solubility of Imidacloprid in the solvent [1]: 4.2 weight percent
solubility of Tebuconazole in the solvent [1]: 38.8 weight percent

CN1CCCC1=O [N-methyl-2-pyrrolidone, reference compound]
solubility of 2,4-D Acid in the solvent [1]: 39.5 weight percent
solubility of Imidacloprid in the solvent [1]: 29.3 weight percent
solubility of Tebuconazole in the solvent [1]: 62.2 weight percent

CCCCCCCCCCOCCOCCOCCO [sat. analog of A10-7]
combined isotropic phases (clear and opaque), share of the total [2]: about 38%
Isotropic Clear phase region ([2]; in deionized water): 90-100 % Actives Level
Isotropic Opaque phase region ([2]; in deionized water): 0-28 % Actives Level
Lamellar phase region ([2]; in deionized water): 28-90 % Actives Level

CCCCCCCCCCOCCOCCOCCOCCOCCO [sat. analog of A10-10]
Lamellar phase region ([2]; in deionized water): 55-80 % Actives Level

CCCCCCCCCCOCCOCCOCCOCCOCCOCCOCCO [sat. analog of A10-13]
Lamellar phase region ([2]; in deionized water): 43-60 % Actives Level

CCCCCCCCCCOCCOCCOCCOCCOCCOCCOCCOCCOCCOCCOCCOCCOCCOCCOCCO [sat. analog of A10-16]
Cubic phase region ([2]; in deionized water): 37-55 % Actives Level
Paste phase region ([2]; in deionized water): 93-100 % Actives Level

CCCCCCCCCCCCOCCOCCOCCO [sat. analog of A12-7]
combined isotropic phases (clear and opaque), share of the total [2]: about 38%
Isotropic Clear phase region ([2]; in deionized water): 90-100 % Actives Level
Isotropic Opaque phase region ([2]; in deionized water): 0-28 % Actives Level
Lamellar phase region ([2]; in deionized water): 28-90 % Actives Level

CCCCCCCCCCCCOCCOCCOCCOCCOCCO [sat. analog of A12-10]
Lamellar phase region ([2]; in deionized water): 40-83 % Actives Level
Lamellar/Isotropic phase region ([2]; in deionized water): 30-40 % Actives Level

CCCCCCCCCCCCOCCOCCOCCOCCOCCOCCOCCO [sat. analog of A12-13]
Hexagonal phase region ([2]; in deionized water): 30-67 % Actives Level
Lamellar phase region ([2]; in deionized water): 67-90 % Actives Level

CCCCCCCCCCCCOCCOCCOCCOCCOCCOCCOCCOCCOCCOCCOCCOCCOCCOCCOCCO [sat. analog of A12-16]
Cubic phase region ([2]; in deionized water): 28-50 % Actives Level
Hexagonal phase region ([2]; in deionized water): 50-73 % Actives Level
Paste phase region ([2]; in deionized water): 93-100 % Actives Level

ammonium alkyl ether sulfate [Control 3, reference compound]
Liquid volume at drain time 0.5 min [3]: 0.25 mL
Liquid volume at drain time 1.0 min [3]: 1.00 mL
Liquid volume at drain time 1.5 min [3]: 2.00 mL
Liquid volume at drain time 2.0 min [3]: 3.00 mL
Liquid volume at drain time 2.5 min [3]: 4.00 mL
Liquid volume at drain time 3.0 min [3]: 5.25 mL
Liquid volume at drain time 3.5 min [3]: 6.50 mL
Liquid volume at drain time 4.0 min [3]: 7.50 mL
